In patent US11773086B2, “Fungal modulators” (TRUSTEES OF BOSTON UNIVERSITY, priority 2020, dated 2023):

Columns and labels:
[1] = test system: C. auris in co-culture with 293T cells; assay: Co-culture of luciferase-expressing 293T cells with C. auris; format: cell-based, Candida auris; settings: azoffluxin and low fluconazole, 48 hours
Protocol: FIG. 10A depicts mammalian embryonic kidney (293T) cells expressing luciferase used to quantify mammalian cell growth in co-culture. Mammalian cells were seeded in 384-well plates in DMEM medium at 5×10^5 cells/mL overnight. After 24 hours the indicated concentration of compound (⋅ indicates combo treatment concentrations) was added along with 2.5×10^3 cells/mL of C. auris. Co-cultures were incubated for 48 hours at 37° C. and then the luminescence was measured as an output of mammalian cell growth. Error represents standard deviation between technical quadruplicates, (***) indicates a p-value<0.001 between 293T cells alone and co-culture growth for each condition. […] FIG. 10C depicts checkerboard assays performed as described in FIG. 2B with C. auris Clade IV isolate B11801. Relative growth was measured after 24 hours using OD600 and normalized to no-drug control wells (see color bar). The FICI calculated for each checkerboard is shown in the top right of each plot, with values<0.5 indicating synergy. FIG. 10D depicts kidney fungal burden (CFU) in mice from each treatment group (n=3) that had been infected with C. auris B11801. […] The significance of differences between combination treatment and treatment with each compound alone was determined by two-tailed unpaired student t-test, (***) p-value<0.001. […]

C. albicans = assay: Checkerboard with fluconazole, clinical isolates CaCi-2 and CaCi-17; format: cell-based, Candida albicans
Protocol: FIG. 9A depicts checkerboard assays as described in FIG. 2B and performed with isolates of C. albicans. CaCi-2 and CaCi-17 represent early and late clinical isolates in which FLC resistance evolved over time. Growth was measured at 24 hours using OD600 and normalized to a no drug control well (see color bar). FIG. 9B depicts dose response assays conducted in YPD medium with a C. albicans parental strain, and strains with gain of function mutations in TAC1 as indicated. FLC was tittered in a two-fold dilution on the x-axis in the absence and presence of 50 μM azoffluxin. Growth was measured at 24 hours using OD600 and normalized to a no drug control well (see color bar). […] FIGS. 9D and 9E depict the intracellular concentrations of FLC and azoffluxin measured after treatment (combo treatment at 6.25 μM azoffluxin and 8 μg/mL FLC) for 1 hour by LC-MS. […] Significance was determined by an unpaired student t-test of each combination to the respective compound alone treatment, (*) indicates a p-value<0.05 and (**) indicates a p-value<0.01.
Compound potency was assessed alone by dose response assays or in combination with another compound by dose-response matrixes in 96-well plates, or 384-well, flat-bottom, microtiter plates (Corning) as previously described. […] Growth was quantified by measuring OD600 and corrected for medium background. […]

C=C(C)C[C@@H](O)COc1cc2c(cc1C1(c3cc4c(cc3OC[C@H](O)CC(=C)C)OCO4)C(=O)Nc3cc(F)ccc31)OCO2 [CMLD012336]
rescue of human cells in co-culture (luminescence) [1]: dramatic rescue of the human cells
potentiation of fluconazole (C. albicans; early clinical isolate CaCi-2): No potentiation
potentiation of fluconazole (C. albicans; late clinical isolate CaCi-17): did potentiate fluconazole
